Reference: ChEMBL document CHEMBL1201862, “PubChem BioAssay data set” (2004)
Active and inactive are the calls of the source.

Experiments:
[1] = biological target: T1, Sentrin-specific protease 8 (Homo sapiens, UniProt Q96LD8); type: functional
T1 sequence (Q96LD8 whole entry): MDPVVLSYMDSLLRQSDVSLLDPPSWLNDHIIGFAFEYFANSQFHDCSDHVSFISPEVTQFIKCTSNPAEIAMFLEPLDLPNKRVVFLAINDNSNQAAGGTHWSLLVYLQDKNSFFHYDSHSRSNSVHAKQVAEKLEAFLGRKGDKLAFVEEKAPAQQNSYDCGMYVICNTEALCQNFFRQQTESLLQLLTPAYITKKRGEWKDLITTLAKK

[2] = biological target: T1, Sentrin-specific protease 8; type: functional; remark: listed apart in the source
[3] = viability of PTEN-deleted HCT116 cells – cell-based, HCT116 PTEN knockout, dose response (AID 1047); type: functional;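 note: HCT116 colon tumor cells with PTEN knocked out; cells exposed to compound for 60 hours before readout; potency for loss of cell viability measured by luminescence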
[4] = viability of HCT116 lacking mutant beta-catenin – cell-based, human colon tumor, dose response (AID 1045); type: functional;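 note: HCT116 colon tumor cells with beta catenin knocked out; cells exposed to compound for 60 hours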
[5] = biological target: T2, Mannose-6-phosphate isomerase (Homo sapiens, UniProt P34949); test: MPI inhibition at elevated mannose 6-phosphate – biochemical, fluorescence intensity, high mannose 6-phosphate, primary screen (AID 1220)
T2 sequence (P34949 whole entry): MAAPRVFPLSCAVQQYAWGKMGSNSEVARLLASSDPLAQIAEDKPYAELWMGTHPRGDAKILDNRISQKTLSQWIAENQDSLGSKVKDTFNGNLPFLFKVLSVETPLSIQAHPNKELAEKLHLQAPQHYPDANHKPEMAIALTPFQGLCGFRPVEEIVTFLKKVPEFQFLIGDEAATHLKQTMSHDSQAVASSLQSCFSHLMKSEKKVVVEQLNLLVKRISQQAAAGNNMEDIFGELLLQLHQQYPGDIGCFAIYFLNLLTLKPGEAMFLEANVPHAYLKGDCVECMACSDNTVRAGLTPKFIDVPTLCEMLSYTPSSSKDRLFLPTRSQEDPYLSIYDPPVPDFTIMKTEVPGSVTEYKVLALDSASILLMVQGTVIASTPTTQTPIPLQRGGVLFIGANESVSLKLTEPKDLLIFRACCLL

[6] = biological target: T3, Carboxy-terminal domain RNA polymerase II polypeptide A small phosphatase 1 (Homo sapiens, UniProt Q9GZU7); test: CTDSP1 inhibitors, concentration-response, biochemical, absorbance readout, ultra-high-throughput screen actives (AID 540297); type: functional
T3 sequence (Q9GZU7 whole entry): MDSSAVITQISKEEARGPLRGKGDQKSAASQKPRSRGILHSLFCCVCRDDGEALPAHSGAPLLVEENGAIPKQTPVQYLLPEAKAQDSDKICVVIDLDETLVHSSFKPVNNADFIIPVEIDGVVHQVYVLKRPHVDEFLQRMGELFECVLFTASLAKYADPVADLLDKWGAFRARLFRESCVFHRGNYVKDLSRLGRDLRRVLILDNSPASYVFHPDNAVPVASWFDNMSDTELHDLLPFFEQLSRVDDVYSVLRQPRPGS

[7] = biological target: T4, Rac GTPase-activating protein 1 (Homo sapiens, UniProt Q9H0H5); test: blockers of MgcRacGAP-driven Rac1 GTP hydrolysis – biochemical, ADP Hunter fluorescence, primary and confirmatory, confirmation (AID 624330); type: functional
T4 sequence (Q9H0H5 whole entry): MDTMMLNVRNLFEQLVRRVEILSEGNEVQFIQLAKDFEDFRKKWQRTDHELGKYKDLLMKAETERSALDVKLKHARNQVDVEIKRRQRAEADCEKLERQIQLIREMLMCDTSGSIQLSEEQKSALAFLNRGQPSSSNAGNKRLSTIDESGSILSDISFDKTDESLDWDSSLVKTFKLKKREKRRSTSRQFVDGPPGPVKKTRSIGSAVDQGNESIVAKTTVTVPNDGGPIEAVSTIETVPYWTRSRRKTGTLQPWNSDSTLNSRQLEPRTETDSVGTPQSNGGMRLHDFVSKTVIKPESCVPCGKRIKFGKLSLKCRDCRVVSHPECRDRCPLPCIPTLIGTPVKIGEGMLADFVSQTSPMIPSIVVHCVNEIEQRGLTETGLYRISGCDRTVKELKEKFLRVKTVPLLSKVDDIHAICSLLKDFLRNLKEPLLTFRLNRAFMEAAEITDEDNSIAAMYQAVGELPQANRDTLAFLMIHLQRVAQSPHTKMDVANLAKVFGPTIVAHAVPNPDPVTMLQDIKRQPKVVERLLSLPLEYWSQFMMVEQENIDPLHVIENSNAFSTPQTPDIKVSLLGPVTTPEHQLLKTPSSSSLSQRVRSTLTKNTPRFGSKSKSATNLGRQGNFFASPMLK

[8] = cells; type: functional, cell-based
[9] = cells; type: functional, cell-based; remark: listed apart in the source
[10] = reduction of Shn3 3'UTR-driven luciferase in osteoblasts – cell-based, Clone20 osteoblasts, firefly luciferase, cherry-picked, dose response (AID 624132); type: functional;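 note: firefly luciferase luminescence from reporter carrying the Shn3 3'UTR in osteoblasts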
[11] = loss of viability in HepG2 cells – cell-based, CellTiter-Glo, cherry-picked, cytotoxicity control for Shn3 inhibitor project, dose response (AID 624134); type: functional
[12] = non-specific 3'UTR reporter inhibition in Clone20-Shn3RL – cell-based, Renilla luciferase, cherry-picked, counter-screen for Shn3 inhibitor project, dose response (AID 624133); type: functional
[13] = Luminescence Cell-Based Dose Retest to Confirm Inhibitors of Cancer Stem Cells. [Related pubchem assays (depositor defined):AID2717, AID2721]; type: functional; conditions: Homo sapiens
[14] = HIV-1 AD8 envelope cell-cell fusion blockers – cherry-pick, dose response (AID 652062); type: functional, cell-based;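 note: luciferase signal from cell-cell fusion driven by HIV-1 clade B AD8 Env; potency is for inhibitors of fusion seen as a drop in luminescence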
[15] = biological target: T5, Heat shock factor protein 1 (Mus musculus, UniProt P38532); test: decrease of HSF1-responsive luciferase luminescence – cell-based, NIH3T3, dose retest, confirmation (AID 2382); type: functional;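 note: NIH3T3 fibroblasts with HSF1-driven luciferase reporter stressed by proteasome inhibitor MG132; luminescence from HSF1-driven luciferase expression after 8 hours of MG132 stress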
T5 sequence (P38532 whole entry): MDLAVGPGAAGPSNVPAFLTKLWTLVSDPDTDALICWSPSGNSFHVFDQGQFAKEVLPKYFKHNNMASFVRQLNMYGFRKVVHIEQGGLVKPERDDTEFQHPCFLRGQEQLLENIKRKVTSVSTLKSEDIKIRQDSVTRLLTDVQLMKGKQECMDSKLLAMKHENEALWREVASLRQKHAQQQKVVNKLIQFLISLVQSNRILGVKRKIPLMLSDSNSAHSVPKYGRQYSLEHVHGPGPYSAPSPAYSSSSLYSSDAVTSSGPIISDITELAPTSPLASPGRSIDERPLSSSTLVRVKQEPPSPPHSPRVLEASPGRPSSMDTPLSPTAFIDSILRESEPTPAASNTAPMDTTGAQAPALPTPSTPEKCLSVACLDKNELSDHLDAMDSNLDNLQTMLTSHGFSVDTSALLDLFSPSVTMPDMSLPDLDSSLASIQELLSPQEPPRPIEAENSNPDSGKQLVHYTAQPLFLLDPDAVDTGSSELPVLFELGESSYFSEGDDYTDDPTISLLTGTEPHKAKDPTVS

[16] = luciferase reporter signal suppression in cells – H4 neuroglioma cells, luminescence, dose response (AID 1990); type: functional, cell-based
[17] = Luminescence Cell-Based Dose Response HTS to Identify Inhibitors of 5'UTR Stem-Loop Driven Prion Protein mRNA Translation in H4 Neuroglioblastoma Cells. [Related pubchem assays: 1827 (Project Summary), 1813 (Primary HTS)]; type: functional
[18] = alpha-synuclein stem-loop luciferase translation blockers – H4 neuroglioma cells, luminescence, confirmation (AID 1988); type: functional, cell-based
[19] = biological target: T6, Microphthalmia-associated transcription factor (Homo sapiens, UniProt O75030); test: reducers of TRPM1 reporter luminescence, concentration series – cell-based, SK-MEL-5, cherry-picked, set 3, MITF inhibitor project, dose response (AID 493073); type: functional;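 note: SK-MEL-5 melanoma cells with luciferase driven by the MITF target TRPM1 promoter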
T6 sequence (O75030 whole entry): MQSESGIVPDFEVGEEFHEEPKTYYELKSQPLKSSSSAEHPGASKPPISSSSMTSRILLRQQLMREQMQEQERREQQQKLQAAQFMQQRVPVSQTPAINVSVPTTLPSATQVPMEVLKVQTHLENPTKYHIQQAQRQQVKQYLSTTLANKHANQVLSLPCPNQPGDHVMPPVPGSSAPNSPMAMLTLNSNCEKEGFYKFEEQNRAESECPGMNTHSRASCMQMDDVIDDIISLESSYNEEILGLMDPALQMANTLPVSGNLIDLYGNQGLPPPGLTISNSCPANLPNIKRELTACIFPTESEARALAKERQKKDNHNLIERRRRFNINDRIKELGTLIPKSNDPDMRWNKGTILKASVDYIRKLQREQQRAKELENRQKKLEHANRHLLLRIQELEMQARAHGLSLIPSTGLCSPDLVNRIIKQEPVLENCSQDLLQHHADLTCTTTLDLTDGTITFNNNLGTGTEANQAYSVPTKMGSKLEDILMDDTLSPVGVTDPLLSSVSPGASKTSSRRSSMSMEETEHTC

[20] = tested on: H9c2; test: cells; type: functional, cell-based; conditions: Rattus norvegicus, H9c2, Myocardium;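 note: confirmatory concentration-response retest of ultra-high-throughput screening hits for modulation of myocardial damage; cell death induced by hydrogen peroxide oxidative stress; compound pretreatment for 60 min then peroxide exposure for 2 h; potency is for protecting the cells against peroxide damage rather than for killing them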

With `COC(=O)CCC(=O)OC1(C)C(=O)C=C2C=C3CCCN3C=C2C1=O` (configuration not stated) the IC50 [1] was 6.06 µM (active) and the IC50 [2] was 7.67 µM (active).
In the case of `CC(NC(=O)Nc1cccc([N+](=O)[O-])c1)(C(F)(F)F)C(F)(F)F`, the EC50 [3] is reported as 12 µM (active) and the EC50 [4] is reported as 12.3 µM (active).
For `Cc1cc(N2CCOCC2)nc2ccc(NC(=S)N3CCCCC3C)cc12` (configuration not stated), the IC50 [5] was > 50 µM (not active).
With `O=C(/C=C/c1ccco1)N1CCN(S(=O)(=O)c2ccccc2)CC1` the IC50 [6] was 4.94 µM (active).
With `Cc1ccc(O)c(/C=N/c2ccc3[nH]ncc3c2)c1` the IC50 [5] was > 50 µM (not active) and the IC50 [7] was 27.7 µM (active).
For `Cc1ccc(-n2nc3c(=O)n(CC(=O)NCc4ccccc4)nc(C)c3c2C)cc1`, the EC50 [8] was > 350 µM (not active) and the EC50 [9] was > 350 µM (not active).
For `Cn1cccc1/C=C1\CCc2ccccc2C1=O`, the IC50 [5] was > 50 µM (not active).
With `Cc1ccc(C(NC(=O)C2CCCCC2)c2c(O)ccc3ccccc23)cc1` (configuration not stated) the EC50 [3] was 17.4 µM (active) and the EC50 [4] was 21.5 µM (active).
In the case of `COc1ccccc1N=C(N)Nc1nc(O)cc(CSc2ccc(C)cc2)n1`, the AC50 [10] is reported as 2.95 µM (active), the AC50 [11] is reported as 59.8 µM (active) and the AC50 [12] is reported as 12.4 µM (active).
With `COc1ccc(Nc2nc(N)nc(CN3CCC(Cc4ccccc4)CC3)n2)cc1` the EC50 [3] was 17.7 µM (active) and the EC50 [4] was 23.5 µM (active).
With `COc1ccc(C2c3ccc4ccccc4c3Oc3ncn(Cc4ccco4)c(=N)c32)cc1OC` (configuration not stated) the EC50 [3] was 7.09 µM (active), the EC50 [4] was 8.96 µM (active) and the AC50 [13] was 3.94 µM (active).
In the case of `Nc1ccn([C@@H]2O[C@H](C(=O)NCc3ccc4c(c3)OCO4)[C@@H](O)[C@H]2O)c(=O)n1`, the AC50 [14] is reported as 0.723 µM (active).
With `CC(C)(C)OC(=O)NCc1ccc(CNC(=O)c2nc[nH]c2C(=O)NCc2ccc(CNC(=O)OC(C)(C)C)cc2)cc1` the AC50 [10] was 5.89 µM (active) and the AC50 [11] was > 70 µM (inactive).
With `NC(=S)NNc1cccc2cccnc12` the IC50 [1] was 7.91 µM (active) and the IC50 [2] was 6 µM (active).
With `Cc1ccc(C(=O)OCC(=O)c2ccc(CC(=O)N3CCOCC3)s2)cc1C` the IC50 [6] was 5.01 µM (active).
For `CCS(=O)(=O)N1CCCC(C(=O)N2CCc3ccccc3C2)C1` (configuration not stated), the IC50 [1] was 71.7 µM (inactive) and the IC50 [2] was 17.7 µM (active).
With `CN1CCN(CC(=O)n2c3c(c4ccccc42)CCCC3)CC1` the EC50 [15] was > 195 µM (not active), the IC50 [1] was > 100 µM (inactive) and the IC50 [2] was 16.6 µM (active).
For `Cn1nc(C(C)(C)C)cc1C(=O)N1CCCCC1c1cc(C(=O)Nc2ccc(F)c(Cl)c2)no1` (configuration not stated), the AC50 [10] was 3.04 µM (active), the AC50 [11] was 5.09 µM (active) and the AC50 [12] was 5.06 µM (active).
With `CC(=O)N(CCc1ccccc1)c1ccc2c(c1)C1CC2CCN1C(=O)OCc1ccccc1` (configuration not stated) the AC50 [10] was 14.3 µM (active) and the AC50 [11] was > 70 µM (inactive).
With `Cc1cc(S(=O)(=O)N2CCN(Cc3ccc4c(c3)OCO4)CC2)cc(C)c1N1CCCC1=O` the EC50 [3] was 45.7 µM (active) and the EC50 [4] was 36 µM (active).
For `CC(Oc1ccc(F)cc1)C(=O)Nc1nc(-c2ccccn2)cs1` (configuration not stated), the EC50 [16] was > 120 µM (not active), the EC50 [17] was 10.2 µM (active) and the EC50 [18] was > 120 µM (not active). The AC50 [19] was 9.42 µM (active) and the IC50 [20] was > 79 µM (inactive).
In the case of `CCC1CCc2sc(C(=O)NCc3ccccn3)cc2C1` (configuration not stated), the EC50 [8] is reported as > 350 µM (not active) and the EC50 [9] is reported as 52.4 µM (active).
For `CN(c1ccc(C(=O)N2CCc3ccccc3C2)cc1)S(C)(=O)=O`, the IC50 [1] was 90.5 µM (inactive) and the IC50 [2] was 13.1 µM (active).
In the case of `O=C(/C=C/c1ccc(Cl)cc1)NC(=S)Nc1ccccc1C(=O)O`, the IC50 [6] is reported as 8.66 µM (active).
With `Cc1ccc(C(=O)N2C(=S)C(c3ccc(F)cc3)=NC23CCN(C)CC3)cc1` the IC50 [1] was > 100 µM (inactive) and the IC50 [2] was 15 µM (active).
For `COc1cc(NC(c2ccccc2)c2ccccc2)cc(OC)c1OC`, the IC50 [5] was > 50 µM (not active).
In the case of `COc1ccc(/C=N/NC(=O)c2cccc(NC(=O)c3ccc(Cl)cc3)c2)c(OC)c1`, the IC50 [6] is reported as 6.27 µM (active).
For `O=C(O)c1ccc(N2C(=O)CSC2=S)cc1`, the EC50 [8] was > 350 µM (not active) and the EC50 [9] was > 350 µM (not active).
In the case of `OCCC1CN(Cc2c(O)ccc3ccccc23)CCN1CCc1ccccc1` (configuration not stated), the IC50 [5] is reported as > 50 µM (not active).
With `COc1ccccc1N(CC(=O)NCc1ccco1)S(=O)(=O)c1ccc(C)cc1` the IC50 [6] was 5.17 µM (active).
